Assay results as given in patent US20140120083A1, “TREATMENT OF CANCERS USING PI3 KINASE ISOFORM MODULATORS” (INFINITY PHARMACEUTICALS, INC., priority 2012, published 2014).

What was measured:
Type in all cases: biochemical
[1] = target: PI3K δ (Homo sapiens, UniProt O00329); test: In vitro IC50, PI3K δ; design: purchased Upstate
Source text: (§1) An exemplary system is PI 3-Kinase (human) HTRF™ Assay from Upstate.

[2] = target: PI3K β (Homo sapiens, UniProt P42338); test: In vitro IC50, PI3K β
Source text: as §1

[3] = target: T1, PI3K γ (Homo sapiens, UniProt P48736); test: In vitro IC50, PI3K γ
T1 construct: purchased Sigma
Source text: as §1

[4] = target: T2, PI3K α (Homo sapiens, UniProt P42336); test: In vitro IC50, PI3K α
T2 construct: purchased Upstate
Source text: as §1

T1 sequence (P48736 whole entry): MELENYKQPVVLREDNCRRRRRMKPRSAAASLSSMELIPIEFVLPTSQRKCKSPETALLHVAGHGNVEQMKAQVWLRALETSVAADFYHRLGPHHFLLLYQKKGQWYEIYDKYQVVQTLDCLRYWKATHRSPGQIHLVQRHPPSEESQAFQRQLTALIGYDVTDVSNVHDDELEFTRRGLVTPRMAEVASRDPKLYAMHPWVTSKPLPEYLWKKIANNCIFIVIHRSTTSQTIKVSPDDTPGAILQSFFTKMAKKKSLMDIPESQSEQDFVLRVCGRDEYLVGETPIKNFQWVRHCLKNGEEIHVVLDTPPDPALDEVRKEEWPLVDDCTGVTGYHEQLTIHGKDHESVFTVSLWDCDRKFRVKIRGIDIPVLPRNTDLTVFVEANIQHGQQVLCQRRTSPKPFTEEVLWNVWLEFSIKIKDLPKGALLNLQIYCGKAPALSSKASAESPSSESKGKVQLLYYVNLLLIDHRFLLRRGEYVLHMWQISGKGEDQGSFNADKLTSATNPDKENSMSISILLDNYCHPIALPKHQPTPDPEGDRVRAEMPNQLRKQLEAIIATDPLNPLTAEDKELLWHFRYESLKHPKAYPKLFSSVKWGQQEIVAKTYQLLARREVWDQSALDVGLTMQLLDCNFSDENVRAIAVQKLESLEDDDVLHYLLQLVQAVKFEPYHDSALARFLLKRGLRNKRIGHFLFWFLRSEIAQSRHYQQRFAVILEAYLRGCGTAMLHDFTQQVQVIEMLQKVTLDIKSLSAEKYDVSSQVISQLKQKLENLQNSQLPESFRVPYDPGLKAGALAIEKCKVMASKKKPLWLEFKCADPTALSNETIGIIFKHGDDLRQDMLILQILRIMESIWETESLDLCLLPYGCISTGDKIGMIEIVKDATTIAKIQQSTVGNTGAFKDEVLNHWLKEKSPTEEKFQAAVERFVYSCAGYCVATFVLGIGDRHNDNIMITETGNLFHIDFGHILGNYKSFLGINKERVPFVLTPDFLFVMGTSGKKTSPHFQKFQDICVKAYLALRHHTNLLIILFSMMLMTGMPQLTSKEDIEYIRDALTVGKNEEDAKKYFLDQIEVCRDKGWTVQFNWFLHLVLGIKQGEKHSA
PI3K β, sequence (P42338 whole entry): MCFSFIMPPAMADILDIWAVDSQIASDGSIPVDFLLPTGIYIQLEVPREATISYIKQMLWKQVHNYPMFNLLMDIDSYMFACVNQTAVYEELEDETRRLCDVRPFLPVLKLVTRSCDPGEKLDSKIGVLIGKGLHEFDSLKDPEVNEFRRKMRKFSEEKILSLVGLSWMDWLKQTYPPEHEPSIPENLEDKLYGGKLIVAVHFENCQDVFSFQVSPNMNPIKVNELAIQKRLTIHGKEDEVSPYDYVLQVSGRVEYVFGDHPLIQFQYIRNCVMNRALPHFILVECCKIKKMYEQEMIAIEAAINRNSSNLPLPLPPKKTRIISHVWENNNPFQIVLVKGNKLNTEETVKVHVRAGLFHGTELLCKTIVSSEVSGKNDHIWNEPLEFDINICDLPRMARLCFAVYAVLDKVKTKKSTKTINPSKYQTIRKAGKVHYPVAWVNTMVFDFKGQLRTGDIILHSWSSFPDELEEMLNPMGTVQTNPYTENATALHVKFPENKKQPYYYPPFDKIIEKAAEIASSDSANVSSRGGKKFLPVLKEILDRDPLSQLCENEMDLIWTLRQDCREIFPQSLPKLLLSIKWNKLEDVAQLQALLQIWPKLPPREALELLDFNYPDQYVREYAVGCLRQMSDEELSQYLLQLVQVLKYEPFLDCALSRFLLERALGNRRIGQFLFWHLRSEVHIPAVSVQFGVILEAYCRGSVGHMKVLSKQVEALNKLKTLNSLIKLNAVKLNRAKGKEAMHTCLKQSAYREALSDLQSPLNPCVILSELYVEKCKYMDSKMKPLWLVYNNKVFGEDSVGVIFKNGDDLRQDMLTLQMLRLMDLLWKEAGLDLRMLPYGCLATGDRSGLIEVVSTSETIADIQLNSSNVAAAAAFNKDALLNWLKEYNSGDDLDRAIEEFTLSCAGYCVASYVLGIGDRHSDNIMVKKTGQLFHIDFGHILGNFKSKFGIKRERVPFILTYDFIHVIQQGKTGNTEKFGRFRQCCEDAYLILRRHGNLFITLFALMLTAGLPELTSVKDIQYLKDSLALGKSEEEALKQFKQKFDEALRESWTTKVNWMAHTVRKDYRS
T2 sequence (P42336 whole entry): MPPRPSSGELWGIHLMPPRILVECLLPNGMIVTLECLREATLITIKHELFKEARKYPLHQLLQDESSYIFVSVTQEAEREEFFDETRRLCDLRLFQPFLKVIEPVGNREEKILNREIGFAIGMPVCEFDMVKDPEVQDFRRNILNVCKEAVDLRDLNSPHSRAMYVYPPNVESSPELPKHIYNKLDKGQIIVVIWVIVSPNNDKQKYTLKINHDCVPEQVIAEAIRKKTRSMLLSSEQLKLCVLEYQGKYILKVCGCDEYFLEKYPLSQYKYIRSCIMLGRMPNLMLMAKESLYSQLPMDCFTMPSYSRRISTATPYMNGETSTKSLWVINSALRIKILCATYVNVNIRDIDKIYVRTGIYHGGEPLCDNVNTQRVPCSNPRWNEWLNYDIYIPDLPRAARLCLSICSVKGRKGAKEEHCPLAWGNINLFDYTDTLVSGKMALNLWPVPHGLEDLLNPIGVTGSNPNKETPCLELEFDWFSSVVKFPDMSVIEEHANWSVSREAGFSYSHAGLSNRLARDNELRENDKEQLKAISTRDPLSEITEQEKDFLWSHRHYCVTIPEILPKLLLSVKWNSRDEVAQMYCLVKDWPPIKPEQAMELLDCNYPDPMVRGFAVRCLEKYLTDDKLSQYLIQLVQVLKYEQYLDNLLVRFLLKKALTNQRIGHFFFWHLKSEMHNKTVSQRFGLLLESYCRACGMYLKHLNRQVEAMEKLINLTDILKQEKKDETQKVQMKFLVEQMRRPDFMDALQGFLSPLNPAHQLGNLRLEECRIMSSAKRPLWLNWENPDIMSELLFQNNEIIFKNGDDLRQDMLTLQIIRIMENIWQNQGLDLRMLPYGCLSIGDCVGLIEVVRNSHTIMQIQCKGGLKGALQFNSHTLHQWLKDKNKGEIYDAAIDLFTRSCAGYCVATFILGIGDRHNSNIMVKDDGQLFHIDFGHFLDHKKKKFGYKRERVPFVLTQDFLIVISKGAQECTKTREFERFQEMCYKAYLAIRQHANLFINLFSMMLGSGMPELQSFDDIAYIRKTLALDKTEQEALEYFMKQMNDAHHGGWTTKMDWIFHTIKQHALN
T2 sequence (P27986 whole entry partner): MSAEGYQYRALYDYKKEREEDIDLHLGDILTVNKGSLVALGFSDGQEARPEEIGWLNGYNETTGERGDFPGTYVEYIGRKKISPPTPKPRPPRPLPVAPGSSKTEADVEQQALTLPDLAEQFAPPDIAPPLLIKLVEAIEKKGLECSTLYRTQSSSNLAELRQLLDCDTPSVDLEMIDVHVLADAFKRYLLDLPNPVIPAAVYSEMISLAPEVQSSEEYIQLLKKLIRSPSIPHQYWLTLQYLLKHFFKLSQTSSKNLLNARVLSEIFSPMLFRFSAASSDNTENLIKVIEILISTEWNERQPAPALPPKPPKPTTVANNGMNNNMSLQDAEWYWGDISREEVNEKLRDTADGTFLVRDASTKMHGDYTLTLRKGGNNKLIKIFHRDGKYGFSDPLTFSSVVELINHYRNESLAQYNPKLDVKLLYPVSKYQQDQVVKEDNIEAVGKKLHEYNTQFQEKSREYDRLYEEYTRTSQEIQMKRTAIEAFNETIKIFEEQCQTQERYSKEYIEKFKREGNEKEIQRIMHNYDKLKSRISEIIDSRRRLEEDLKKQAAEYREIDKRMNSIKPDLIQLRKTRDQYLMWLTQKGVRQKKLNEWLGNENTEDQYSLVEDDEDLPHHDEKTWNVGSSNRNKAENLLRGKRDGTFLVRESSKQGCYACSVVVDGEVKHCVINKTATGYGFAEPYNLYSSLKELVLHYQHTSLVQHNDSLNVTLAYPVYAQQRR
PI3K δ, sequence (O00329 whole entry): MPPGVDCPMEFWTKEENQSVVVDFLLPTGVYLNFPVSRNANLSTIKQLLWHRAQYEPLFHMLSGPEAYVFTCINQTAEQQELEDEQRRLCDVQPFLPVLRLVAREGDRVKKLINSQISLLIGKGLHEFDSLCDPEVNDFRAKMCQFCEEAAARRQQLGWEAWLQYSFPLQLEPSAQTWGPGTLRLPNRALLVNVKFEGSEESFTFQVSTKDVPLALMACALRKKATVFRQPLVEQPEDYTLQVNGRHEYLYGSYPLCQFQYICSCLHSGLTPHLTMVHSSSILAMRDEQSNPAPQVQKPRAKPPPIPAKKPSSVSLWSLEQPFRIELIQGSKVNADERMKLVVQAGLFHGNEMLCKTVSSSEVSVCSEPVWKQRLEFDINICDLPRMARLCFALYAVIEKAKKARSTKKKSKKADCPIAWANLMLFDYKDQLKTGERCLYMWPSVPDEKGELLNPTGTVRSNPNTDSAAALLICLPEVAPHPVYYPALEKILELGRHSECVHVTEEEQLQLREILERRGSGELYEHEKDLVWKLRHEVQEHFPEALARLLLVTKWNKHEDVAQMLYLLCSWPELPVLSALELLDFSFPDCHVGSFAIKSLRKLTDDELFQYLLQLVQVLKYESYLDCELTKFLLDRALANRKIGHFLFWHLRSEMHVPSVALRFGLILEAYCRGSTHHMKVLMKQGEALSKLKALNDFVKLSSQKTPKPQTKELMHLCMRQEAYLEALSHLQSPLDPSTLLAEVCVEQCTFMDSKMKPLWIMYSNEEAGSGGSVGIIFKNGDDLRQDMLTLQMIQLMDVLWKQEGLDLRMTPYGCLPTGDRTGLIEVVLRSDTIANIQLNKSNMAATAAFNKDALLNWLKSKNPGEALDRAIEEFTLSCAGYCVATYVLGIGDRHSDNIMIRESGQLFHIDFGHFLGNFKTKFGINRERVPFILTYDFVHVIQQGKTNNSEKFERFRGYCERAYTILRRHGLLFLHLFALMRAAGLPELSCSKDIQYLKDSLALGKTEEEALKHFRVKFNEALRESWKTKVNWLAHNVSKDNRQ
PI3K δ, sequence (P27986 whole entry partner): as the sequence (P27986 whole entry partner) above

Structure (SMILES)	IC50 [1] [nM]	IC50 [2] [µM]	IC50 [3] [nM]	IC50 [4] [µM]
Cc1ccccc1-n1c(Cn2nc(CN3CCOCC3)c3c(N)ncnc32)cc2cccc(C)c2c1=O [Compound 194]	< 10000	> 10	> 10000	> 10
Cc1cccc2cc([C@@H](C)Nc3ncnc4[nH]cnc34)n(C3CCC3)c(=O)c12 [Compound 197]	> 10000	> 10	< 10000	> 10
Cc1cccc2cc([C@H](C)Nc3ncnc4[nH]cnc34)n(C3CCC3)c(=O)c12 [Compound 198]	< 100	< 10	< 100	< 10
Cc1cccc2cc(Cn3nc(-c4ccc5oc(N)nc5c4)c4c(N)ncnc43)n(C3CC3)c(=O)c12 [Compound 201]	< 100	< 1	< 100	< 0.1
CCC(Nc1ncnc2[nH]cnc12)c1cc2cccc(C)c2c(=O)n1-c1ccccc1C (centres unmarked) [Compound 202]	< 100	< 10	< 1000	> 10
Cc1cccc2cc(C(C)Nc3ncnc4[nH]cnc34)n(C3CC3)c(=O)c12 (centres unmarked) [Compound 204]	< 100	< 1	< 100	< 10
Cc1cccc2cc(Cn3nc(-c4ccc5oc(N)nc5c4)c4c(N)ncnc43)n(-c3ccccc3)c(=O)c12 [Compound 205]	< 100	< 10	< 100	< 10
Cc1cccc2cc(Cn3nc(-c4cn[nH]c4)c4c(N)ncnc43)n(-c3ccccc3)c(=O)c12 [Compound 206]	< 100	< 10	< 1000	< 10
Cc1ccccc1-n1c(Cn2nc(-c3nn[nH]n3)c3c(N)ncnc32)cc2cccc(C)c2c1=O [Compound 207]	< 100	< 10	< 100	< 10
Cc1cccc2cc(Cn3nc(-c4ccc5oc(N)nc5c4)c4c(N)ncnc43)n(C3CCC3)c(=O)c12 [Compound 208]	< 100	< 1	< 100	< 1
Cc1cccc2cc(C(C)Nc3ncnc4[nH]cnc34)n(C(C)C)c(=O)c12 (centres unmarked) [Compound 209]	< 100	< 10	< 1000	< 10
Cc1cccc2cc(C(C)Nc3ncnc4[nH]cnc34)n(-c3ccccc3)c(=O)c12 (centres unmarked) [Compound 210]	< 100	< 10	< 100	< 10
CCC(Nc1ncnc2[nH]cnc12)c1cc2cccc(C)c2c(=O)n1-c1ccccc1 (centres unmarked) [Compound 211]	< 100	< 10	< 100	> 10
CCC(Nc1ncnc2[nH]cnc12)c1cc2cccc(C)c2c(=O)n1C1CCC1 (centres unmarked) [Compound 212]	< 100	< 10	< 1000	> 10
Cc1cccc2cc(C(C)Nc3ncnc4[nH]cnc34)n(-c3ccc(F)cc3)c(=O)c12 (centres unmarked) [Compound 213]	< 100	< 1	< 100	< 10
Cc1cccc2cc(Cn3nc(-c4cn[nH]c4)c4c(N)ncnc43)n(-c3ccccc3C(F)(F)F)c(=O)c12 [Compound 214]	< 100	< 10	< 1000	> 10
Cc1cccc2cc(C(C)Nc3ncnc4[nH]cnc34)n(C3CCC3)c(=O)c12 (centres unmarked) [Compound 215]	< 100	< 10	< 100	> 10
Cc1cccc2cc(C(C)Nc3ncnc4[nH]cnc34)n(-c3c(F)cccc3F)c(=O)c12 (centres unmarked) [Compound 216]	< 100	> 10	< 1000	> 10
Cc1cccc(C)c1-n1c(CNc2ncnc3[nH]cnc23)cc2cccc(C)c2c1=O [Compound 218]	< 100	> 10	< 1000	> 10
CCC(Nc1ncnc2[nH]cnc12)c1cc2cccc(C)c2c(=O)n1C(C)C (centres unmarked) [Compound 219]	< 100	< 10	< 10000	> 10
CC(Nc1ncnc2[nH]cnc12)c1cc2ccccc2c(=O)n1-c1ccccc1 (centres unmarked) [Compound 220]	< 100	< 10	< 1000	> 10
CCC(Nc1ncnc2[nH]cnc12)c1cc2ccccc2c(=O)n1-c1ccccc1 (centres unmarked) [Compound 221]	< 100	> 10	< 10000	> 10
Cc1cccc2cc(C(C)Nc3ncnc4[nH]cnc34)n(-c3cc(F)cc(F)c3)c(=O)c12 (centres unmarked) [Compound 222]	< 100	> 10	< 1000	> 10
CCC(Nc1ncnc2[nH]cnc12)c1cc2cccc(C)c2c(=O)n1-c1ccc(F)cc1 (centres unmarked) [Compound 223]	< 100	< 10	< 100	< 10

Structure (SMILES)	IC50 [1] [nM]	IC50 [2] [µM]	IC50 [3] [nM]	IC50 [4] [µM]
CCC(Nc1ncnc2[nH]cnc12)c1cc2cccc(C)c2c(=O)n1-c1cc(F)cc(F)c1 (centres unmarked) [Compound 224]	< 100	> 10	< 10000	> 10
Cc1cccc2cc(C(C)Nc3ncnc4[nH]cnc34)n(C3CCN(C)CC3)c(=O)c12 (centres unmarked) [Compound 227]	< 100	< 1	> 10000	> 10
CCC(Nc1ncnc2[nH]cnc12)c1cc2cccc(C)c2c(=O)n1C1CCN(C)CC1 (centres unmarked) [Compound 228]	< 1000	< 10	> 10000	> 10
Cc1cccc2cc([C@H](C)Nc3ncnc4ccccc34)n(-c3ccccc3)c(=O)c12 [Compound 238]	< 100	> 10	< 1000	> 10
Cc1cccnc1-n1c(Cn2nc(-c3ccc4oc(N)nc4c3)c3c(N)ncnc32)cc2cccc(C)c2c1=O [Compound 240]	< 100	< 10	< 100	< 10
Cc1ccccc1-n1c(Cn2nc(-c3ccc4nc(N)oc4c3)c3c(N)ncnc32)cc2cccc(C)c2c1=O [Compound 243]	< 100	< 10	< 100	< 10
Cc1cccc2cc([C@H](C)Nc3nc(Cl)nc4[nH]cnc34)n(-c3ccccc3)c(=O)c12 [Compound 244]	< 100	< 10	< 100	< 10
Cc1cccc2cc([C@H](C)Nc3ncnc4[nH]ccc34)n(-c3ccccc3)c(=O)c12 [Compound 247]	< 100	< 10	< 100	> 10
Cc1cccc2cc([C@H](C)Nc3nc(Cl)ncc3Cl)n(-c3ccccc3)c(=O)c12 [Compound 248]	< 1000	> 10	< 10000	> 10
Cc1cccc2cc([C@H](C)Nc3nc(N)ncc3Cl)n(-c3ccccc3)c(=O)c12 [Compound 249]	< 100	< 10	< 100	> 10
CC(=O)Nc1nc2cc(-c3nn(Cc4cc5cccc(C)c5c(=O)n4-c4ccccc4C)c4ncnc(N)c34)ccc2o1 [Compound 251]	< 100	< 1	< 100	< 10
Cc1cccc2cc(Cn3nc(-c4ccc5nc(N)sc5c4)c4c(N)ncnc43)n(-c3ccccc3)c(=O)c12 [Compound 252]	< 100	< 1	< 100	< 0.1
CC(=O)Nc1nc2cc(-c3nn(Cc4cc5cccc(C)c5c(=O)n4-c4ccccc4)c4ncnc(N)c34)ccc2o1 [Compound 253]	< 100	< 0.1	< 100	< 10
Cc1cccc2cc([C@H](C)Nc3ncnc4[nH]cc(F)c34)n(-c3ccccc3)c(=O)c12 [Compound 254]	< 100	< 0.1	< 100	< 10
Cc1cccc2cc([C@H](C)Nc3ncnc4[nH]nc(C#N)c34)n(-c3ccccc3)c(=O)c12 [Compound 255]	< 100	< 0.1	< 100	< 10
Cc1cccc2cc([C@H](C)Nc3ncnc4[nH]nc(C(N)=O)c34)n(-c3ccccc3)c(=O)c12 [Compound 256]	< 100	< 0.1	< 100	< 10
Cc1cccc2cc([C@H](C)Nc3ncnc4[nH]cc(Br)c34)n(-c3ccccc3)c(=O)c12 [Compound 257]	< 100	< 0.1	< 100	< 1
Cc1cccc2cc([C@H](C)NC3CCOCC3)n(-c3ccccc3)c(=O)c12 [Compound 259]	> 10000	> 10	> 10000	> 10
Cc1cccc2cc([C@H](C)Nc3ncnc4[nH]cnc34)n(-c3ccc(F)cc3)c(=O)c12 [Compound 260]	< 100	< 0.1	< 100	< 1
Cc1cccc2cc([C@H](C)Nc3ncnc4[nH]c(Cl)nc34)n(-c3ccccc3)c(=O)c12 [Compound 261]	> 10000	> 10	< 10000	> 10
Cc1cccc2cc([C@H](C)Nc3ncnc4[nH]cc(Cl)c34)n(-c3ccccc3)c(=O)c12 [Compound 262]	< 100	< 0.1	< 100	< 1
Cc1cccc2cc([C@H](C)Nc3ncnc4[nH]c(O)nc34)n(-c3ccccc3)c(=O)c12 [Compound 263]	> 10000	> 10	> 10000	> 10
Cc1cccc2cc([C@H](C)Nc3ncnc4[nH]cc(C#N)c34)n(-c3ccccc3)c(=O)c12 [Compound 264]	< 100	< 0.1	< 100	< 1
